# Test results: patent US10301292B2, “Bicyclic compound” (Takeda Pharmaceutical Company Limited, priority 2014, dated 2019)
# What was measured:
# [1] = molecular target: T1, human ACC1 (Homo sapiens, UniProt Q13085); test: Measurement of ACC1 inhibitory activity (Malonyl-CoA production, RapidFire-mass spectrometry); format: biochemical; details: 10 μM of the test compound; recombinant human ACC1; read-out: ACC1 inhibitory rate (%) at 10 μM
# T1 construct: His tag (from vector pFAST-BacHTc; protein captured on Ni-NTA) (N); made in house; host or cells: SF-9 insect cells, recombinant baculovirus BAC-ACC1
# Procedure: (1) Cloning of Human ACC1 Gene and Preparation of Recombinant Baculovirus
# Human ACC1 gene was cloned by PCR using a human liver cDNA library (Clontech) as a template and Primer 1 and Primer 2 shown below. Primer 1 and Primer 2 were prepared by adding SalI, NotI restriction enzyme recognition sequences based on the information of the base sequence of human ACC1 gene (Genbank Accession U19822).
# PCR was performed using Pyrobest DNA polymerase (TAKARA BIO INC.). The obtained PCR product was cloned to pT7 Blue vector (Novagen) and after confirmation of the base sequence, digested with restriction enzymes SalI and XbaI. The obtained DNA fragment was inserted into pFAST-BacHTc (Invitrogen) digested with restriction enzymes SalI and XbaI to give expression plasmid ACC1/pFAST-BacHTc.
# Using the expression plasmid ACC1/pFAST-BacHTc and BAC-TO-BAC Baculovirus Expression System (Invitrogen), virus stock BAC-ACC1 of recombinant Baculovirus was prepared.
# (2) Preparation of ACC1 Protein
# SF-9 cells (Invitrogen) were inoculated to a medium (10 L) for insect cells (Sf-900IISFM medium (Invitrogen) containing 5% fetal bovine serum (Trace), 50 mg/L Gentamicin (Wako Pure Chemical Industries, Ltd.), 0.1% Pluronic F-68 (Invitrogen)) at 1.0×10^6 cells/mL, and cultured with shaking in Wave Bioreactor (GE Healthcare) at 27° C., 20 rpm, rocking angle 10°, oxygen concentration 30%.
# On day 2 of the culture, recombinant Baculovirus BAC-ACC1 was added, and the cells were cultured for 3 days. The culture medium was centrifuged at 4000×g for 10 min to give virus-infected cells. The cells were washed with phosphate buffered saline (Invitrogen) and centrifuged under the same conditions. The obtained cells were cryopreserved at −80° C.
# The cryopreserved cells were thawed in ice and suspended in 800 mL of 25 mM HEPES buffer (pH 7.5) containing 10% Glycerol, 0.3 M NaCl, 1 mM EDTA, 25 mM Sodium β-Glycerophosphate and 1 mM Sodium Orthovanadate, and supplemented with Complete Protease Inhibitor (Roche). The obtained suspension was homogenized two times in a polytron homogenizer (Kinematica) at 20,000 rpm for 20 sec. The obtained cell disruption solution was clarified by centrifugation at 186,000×g for 60 min and the supernatant was passed through Ni-NTA Superflow Cartridges (5 mL) (QUIAGEN). Furthermore, it was washed with 25 mM HEPES buffer (pH 7.5) containing 20 mM Imidazole, 0.3 M NaCl, and eluted with 25 mM HEPES buffer (pH 7.5) containing 250 mM Imidazol, 0.3 M NaCl. The eluate was concentrated by Amicon Ultra-15 (Nihon Millipore K.K.) having a fraction molecular weight of 50K. The obtained concentrate was subjected to gel filtration with 50 mM HEPES buffer (pH 7.5) containing 10 mM MgCl2, 2 mM dithiothreitol, 10 mM tripotassium citrate, 0.3 M NaCl by using HiLoad 26/60 Superdex200 prep grade gel filtration column (GE Healthcare) to give ACC1. The obtained ACC1 was cryopreserved at −80° C.
# (3) Measurement of ACC1 Inhibitory Activity
# ACC1 obtained in the above-mentioned (2) was diluted with an enzyme reaction buffer (50 mM HEPES (pH 7.5), 10 mM MgCl2, 10 mM Tripottasium Citrate, 2 mM Dithiothreitol, 0.001% Fatty acid free BSA) to a concentration of 0.2 μg/ml, and the mixture was added to each well of a 384 well assay plate by 10 μl. A test compound dissolved in dimethyl sulfoxide (DMSO) was diluted with an enzyme reaction buffer and the resulting solution (5 μl) was added to each well. The mixture was incubated at room temperature for 60 min. Then, a substrate solution (50 mM KHCO3, 200 μM ATP, 200 μM Acetyl-CoA, 5 μl) was added to each well, and the mixture was reacted at room temperature for 30 min. The reaction was quenched by adding a reaction quenching liquid (1.3% formic acid, 0.2 μM Malonyl-^13C3-CoA) by 60 μL each to the obtained reaction mixtures (test compound addition group).
# In addition, a reaction was performed in the same manner as above and without adding the test compound (test compound non-addition group). […]
# [2] = system: HCT116 cells; test: Growth inhibitory activity on HCT116 cell (CellTiter-Glo); format: cell-based; details: Homo sapiens, HCT-116, 72 h, table head: 10 μM (text b2498: 1 μM), 3 days incubation, read-out: HCT116 cell proliferation inhibitory rate (%) at 10 μM
# Procedure: The growth inhibitory activity of the compound on HCT116 cell was evaluated by the following method.
# HCT116 cells were seeded in a 384 well blackplate at 900 cells/30 μL/well, and maintained in an RPMI medium (Wako)) containing an assay medium (2% fetal bovine serum, 50 Unit/mL penicillin, 50 μg/mL streptomycin (Invitrogen). The next day, a test compound dissolved in dimethyl sulfoxide (DMSO) was diluted with the assay medium, and the obtained compound solution was added by 10 μL to each well of a plate containing HCT116 cells and incubated at 37° C., 5% CO2 (test compound addition group).
# A similar reaction was performed without adding a test compound (test compound non-addition group).
# Furthermore, a similar reaction was performed under the conditions without adding HCT116 cell and a test compound (control group).
# After 3 days, 20 μL of a CellTiter-Glo reagent (Promega KK) was added to the well, and the mixture was stirred for 10 min. Thereafter, the luminescence value of each well was measured by the EnVision™ multilabel counter (Perkin Elmer Inc.).
# The HCT116 cell proliferation inhibitory rate (%) of the test compound was determined by the following calculation formula. (1−(luminescence of test compound addition group−luminescence of control group)÷(luminescence of test compound nonaddition group−luminescence of control group))×100
inhibition at 10 µM [1] [%],SMILES,inhibition at 10 µM [2] [%]
94,"CNC(=O)NC(C)c1ccc2nc(-c3ccc(Oc4cccc(OCC5CC5)c4)nc3)oc2c1 (stereo not drawn) [Example 100, 1-(1-(2-(6-(3-(cyclopropylmethoxy)phenoxy)pyridin-3-yl)-1,3-benzoxazol-6-yl)ethyl)-3-methylurea]",28
98,"CC(=O)NC(C)c1ccc2oc(-c3ccc(Oc4cccc(OCC5CC5)c4)cn3)cc2c1 (stereo not drawn) [Example 31, N-(1-(2-(5-(3-(cyclopropylmethoxy)phenoxy)pyridin-2-yl)-1-benzofuran-5-yl)ethyl)acetamide]",42
99,"CC(=O)NC(C)c1ccc2nc(-c3ccc(Oc4cccc(OC[C@@H]5CC5(F)F)c4)cn3)oc2c1 (stereo partly drawn) [Example 76, N-(1-(2-(5-(3-(((1S)-2,2-difluorocyclopropyl)methoxy)phenoxy)pyridin-2-yl)-1,3-benzoxazol-6-yl)ethyl)acetamide]",45
103,"CC(NC(N)=O)c1ccc2nc(-c3ccc(Oc4cncc(OCC5CC5)c4)nc3)oc2c1 (stereo not drawn) [Example 106, 1-(1-(2-(6-((5-(cyclopropylmethoxy)pyridin-3-yl)oxy)pyridin-3-yl)-1,3-benzoxazol-6-yl)ethyl)urea]",33
97,"CC(NC(N)=O)c1ccc2nc(-c3cnc(Oc4cccc(OCC5CC5)c4)cn3)oc2c1 (stereo not drawn) [Example 109, 1-(1-(2-(5-(3-(cyclopropylmethoxy)phenoxy)pyrazin-2-yl)-1,3-benzoxazol-6-yl)ethyl)urea]",27
95,"CC(=O)NC(C)c1ccc2oc(-c3ccc(Oc4cccc(OCC5CC5)c4)nc3)nc2c1 (stereo not drawn) [Example 71, N-(1-(2-(6-(3-(cyclopropylmethoxy)phenoxy)pyridin-3-yl)-1,3-benzoxazol-5-yl)ethyl)acetamide]",41
